Consider 25 substances from patent publication US8354522B2, “Immunostimulatory oligoribonucleotides” (Coley Pharmaceutical GmbH, priority 2005, dated 2013).

pEC50: −log10 of the molar value. Read-outs that look alike come from different tables or passages of the source.

The data set concerns Human PBMC. In words: Cytokine production upon human PBMC stimulation (ORN complexed to DOTAP, 16 h, ELISA). Type of data set: cell-based. The arrangement: key to IFN-alpha / TNF-alpha: +: cytokine production; −: no cytokine production. The conditions noted are these: for pEC50 / IFN-alpha max activity / TNF-alpha max activity: human PBMC, ORN complexed to DOTAP, 16 h; for pEC50: full titration 2 μM to 0.9 nM; for IFN-alpha max activity / TNF-alpha max activity: mean max activity at 0.6 μM, 3-6 blood donors; for IFN-alpha / TNF-alpha: human PBMC stimulated for 16 h, supernatant ELISA. Here is the method: Human peripheral blood mononuclear cells (PBMCs) were isolated from healthy donors, plated, and stimulated in vitro with various test and control immunostimulatory agents for 16 hours. After 16 hours, the supernatants were collected and then analyzed by ELISA assay. N-U-R1-R2,-Containing Oligoribonucleotides were tested complexed to DOTAP and with full titration curves (7 concentrations), starting from 2 μM ORN complexed to 25 μg/ml DOTAP and with 1/3 dilution steps. Also included were certain negative controls, including medium alone and DOTAP (25 μg/ml culture well; “Liposomes”) alone. The control immunostimulatory agents included the imidazoquinoline R-848 (2 μM with 1/3 dilution steps and 7 concentrations) the reported ligand for TLR7, ORN having TLR8 motifs such as AU and AUU sequences (SEQ ID NO:13-SEQ ID NO:15) ORN having TLR7/8 motifs such as CU, GU and GUU sequences (SEQ ID NO:19-SEQ ID NO:23).
Human PBMC were stimulated with ORN complexed to DOTAP. After 16 hours supernatants were harvested and TNF-alpha and IFN-alpha levels were measured. Mean/Max activities at 0.6 μM of 3-6 blood donors and two individual experiments were determined. […] TLR8 and TLR7/8 ORN are divided by a red line.
Human PBMC were stimulated with ORN complexed to DOTAP. After 16 hours supernatants were harvested and IFN-alpha levels were measured. Mean/Max activities at 0.6 μM and EC50 of full titration curves (range: 2 μM to 0.9 nM) of 3-6 blood donors and two individual experiments were determined. […] Low EC50/high Max activity represents TLR7/8 ORN (FIG. 5a) whereas high EC50 and low Max activity represents TLR8 ORN (FIG. 5b).
The ORN sequences listed in Table 1 were tested for IFN-alpha and TNF-alpha production upon human PBMC stimulation. Human PBMC were stimulated for 16 h with the indicated ORN, and supernatants were harvested and cytokine production measured by ELISA. Table 2 summarizes the min/max activity and EC50 of ORN for IFN-alpha and TNF-alpha production.
(In general: An ELISA detects its analyte on a solid surface through an enzyme-linked reagent.)

The substance “C*C*G*A*G*C*C*G*A*A*G*C*U*A*C*C (CCGAGCCGAAGCUACC; listed as RNA, chemistry not fully specified) [SEQ ID NO: 87]” came in with an IFN-alpha max activity of 100.5 pg/mL and a TNF-alpha max activity of 12979 pg/mL. Besides, where the note is “read-out: IFN-alpha EC50”, the pEC50 was below 5.70. The negative-log EC50 (pEC50) (read-out: TNF-alpha EC50) was 6.46.

Regarding “C*C*G*A*G*C*C*G*A*T*U*G*U*A*C*C (CCGAGCCGANUGUACC; Oligoribonucleotide, chemistry of T and the '*' linkage is not given here, further chemistry not given here) [SEQ ID NO: 62]”, the IFN-alpha max activity is 1945 pg/mL and the TNF-alpha max activity worked out at 37334 pg/mL. Also, the pEC50 (read-out: IFN-alpha EC50) was 6.56. For the same substance, the negative logarithm of the EC50 (pEC50) (read-out: TNF-alpha EC50) was 6.46.

The substance “C*C*G*A*G*C*C*G*C*A*A*U*U*C*C*C [SEQ ID NO: 50] (CCGAGCCGCAAUUCCC; listed as RNA, chemistry not fully specified)” gave an IFN-alpha max activity of 2614 pg/mL and a TNF-alpha max activity of 11141 pg/mL. Besides, for the setting “read-out: IFN-alpha EC50”, the pEC50 is 6.25. Moreover, the pEC50 (read-out: TNF-alpha EC50) is 6.25.

“C*C*G*A*G*C*C*G*A*T*U*U*U*A*C*C (CCGAGCCGANUUUACC; Oligoribonucleotide, chemistry of T and the '*' linkage is not given here, further chemistry not given here) [SEQ ID NO: 59]” gave an IFN-alpha max activity of 1714 pg/mL and a TNF-alpha max activity of 26762 pg/mL. Moreover, under “read-out: IFN-alpha EC50”, the pEC50 was 7.13. Besides, the pEC50 (read-out: TNF-alpha EC50) was 6.65.

Take “C*U*C*U*C*U*C*U*C*U*C*U*C*U*C*U*C*U*C*U (CUCUCUCUCUCUCUCUCUCU; listed as RNA, chemistry not fully specified) [SEQ ID NO: 19]”: the IFN-alpha entry is reported as “+” and the TNF-alpha entry is listed as “+”.

“C*C*G*A*G*C*C*G*A*U*C*U*U*A*C*C (CCGAGCCGAUCUUACC; listed as RNA, chemistry not fully specified) [SEQ ID NO: 64]” registered an IFN-alpha max activity of 1421 pg/mL and a TNF-alpha max activity of 30712 pg/mL. The pEC50 (read-out: IFN-alpha EC50) was 6.24. Moreover, for the setting “read-out: TNF-alpha EC50”, the pEC50 was 6.54.

Substance “C*C*G*A*G*C*C*G*C*A*U*A*A*C*C*C (CCGAGCCGCAUAACCC; listed as RNA, chemistry not fully specified) [SEQ ID NO: 41]” registered an IFN-alpha max activity of 97.97 pg/mL and a TNF-alpha max activity of 10756 pg/mL. The pEC50 (read-out: IFN-alpha EC50) is below 5.70. For the same substance, the pEC50 (read-out: TNF-alpha EC50) is 6.05.

In turn, “C*C*G*A*G*C*C*G*A*U*C*U*C*A*C*C (CCGAGCCGAUCUCACC; listed as RNA, chemistry not fully specified) [SEQ ID NO: 69]” yielded an IFN-alpha max activity of 1031 pg/mL and a TNF-alpha max activity of 26915 pg/mL. Besides, the pEC50 (read-out: IFN-alpha EC50) was 6.21. Further, the pEC50 (read-out: TNF-alpha EC50) is 6.50.

Turning to “C*C*G*A*G*C*C*G*A*A*G*G*U*A*C*C (CCGAGCCGAAGGUACC; listed as RNA, chemistry not fully specified) [SEQ ID NO: 82]”, the IFN-alpha max activity was found to be 204 pg/mL and the TNF-alpha max activity was 12595 pg/mL. Further, the pEC50 (read-out: IFN-alpha EC50) was below 5.70. Further, the pEC50 (read-out: TNF-alpha EC50) is 6.66.

“C*C*G*A*G*C*C*G*A*T*U*U*C*A*C*C [SEQ ID NO: 78] (CCGAGCCGANUUCACC; Oligoribonucleotide, chemistry of T and the '*' linkage is not given here, further chemistry not given here)” came in with an IFN-alpha max activity of 1609 pg/mL and a TNF-alpha max activity of 20126 pg/mL. Also, the negative-log EC50 (pEC50) (read-out: IFN-alpha EC50) was 8.22. Also, the pEC50 (read-out: TNF-alpha EC50) was 6.62.

In the case of “A*U*A*G*G*C*A*C (AUAGGCAC; phosphorothioate linkages, chemistry not fully specified) [SEQ ID NO: 4]”, the IFN-alpha entry was “−” and the TNF-alpha result is recorded as “+”.

Turning to “C*C*G*A*G*C*C*G*A*G*U*U*U*A*C*C (CCGAGCCGAGUUUACC; listed as RNA, chemistry not fully specified) [SEQ ID NO: 58]”, the IFN-alpha max activity is 1760 pg/mL and the TNF-alpha max activity stood at 36627 pg/mL. For the same substance, the pEC50 (read-out: IFN-alpha EC50) is 7.20. For the same substance, the pEC50 (read-out: TNF-alpha EC50) was 6.69.

Turning to “A*A*A*A*U*A*A*A*A*U*A*A*A*A*U*A*A*A*A*U (AAAAUAAAAUAAAAUAAAAU; listed as RNA, chemistry not fully specified) [SEQ ID NO: 18]”, the IFN-alpha entry is given as “−” and the TNF-alpha result is listed as “+”.

In turn, “C*C*G*A*G*C*C*G*A*A*G*G*U*G*C*C (CCGAGCCGAAGGUGCC; listed as RNA, chemistry not fully specified) [SEQ ID NO: 83]” showed an IFN-alpha max activity of 96.22 pg/mL and a TNF-alpha max activity of 12207 pg/mL. The negative-log EC50 (pEC50) (read-out: IFN-alpha EC50) is below 5.70. The pEC50 (read-out: TNF-alpha EC50) is 6.67.

For the substance “C*U*A*G*G*C*A*C (CUAGGCAC; phosphorothioate linkages, chemistry not fully specified) [SEQ ID NO: 3]”, the IFN-alpha entry is “−” and the TNF-alpha result was “+”.

As for “I*U*A*I*U*A*I*U*A*I*U*A*I*U*A*I*U*A*I*U (NUANUANUANUANUANUANU; inosine, phosphorothioate linkages, chemistry not fully specified) [SEQ ID NO: 27]”, the IFN-alpha result is given as “+” and the TNF-alpha result is listed as “+”.

Substance “C*C*G*A*G*C*C*G*A*A*G*C*U*C*C*C (CCGAGCCGAAGCUCCC; listed as RNA, chemistry not fully specified) [SEQ ID NO: 84]” displayed an IFN-alpha max activity of 67.76 pg/mL and a TNF-alpha max activity of 8545 pg/mL. Also, where the note is “read-out: IFN-alpha EC50”, the pEC50 is below 5.70. The pEC50 (read-out: TNF-alpha EC50) was 6.42.

For the substance “G*U*A*G*U*A*G*U*A*G*U*A*G*U*A*G*U*A*G*U (GUAGUAGUAGUAGUAGUAGU; listed as RNA, chemistry not fully specified) [SEQ ID NO: 25]”, the IFN-alpha entry is on record as “+” and the TNF-alpha result is “+”.

Turning to “G*C*C*A*C*C*G*A*G*C*C*G*A*A*U*A*U*A*C*C (GCCACCGAGCCGAAUAUACC; listed as RNA, chemistry not fully specified) [SEQ ID NO: 11]”, the IFN-alpha entry is reported as “−” and the TNF-alpha result is “+”.

As to “U*U*G*U*U*G*U (UUGUUGU; phosphorothioate linkages, chemistry not fully specified) [SEQ ID NO: 29]”, the IFN-alpha result is “+” and the TNF-alpha entry is on record as “+”.

The substance “C*C*G*A*G*C*C*G*A*G*U*U*C*A*C*C [SEQ ID NO: 67] (CCGAGCCGAGUUCACC; listed as RNA, chemistry not fully specified)” had an IFN-alpha max activity of 2094 pg/mL and a TNF-alpha max activity of 40729 pg/mL. For the same substance, the pEC50 (read-out: IFN-alpha EC50) was 7.09. The pEC50 (read-out: TNF-alpha EC50) was 7.10.

“C*C*G*A*G*C*C*G*A*T*U*U*C*A*C*C [SEQ ID NO: 68] (CCGAGCCGANUUCACC; Oligoribonucleotide, chemistry of T and the '*' linkage is not given here, further chemistry not given here)” came in with an IFN-alpha max activity of 1821 pg/mL and a TNF-alpha max activity of 29647 pg/mL. In addition, the pEC50 (read-out: IFN-alpha EC50) was 7.74. In addition, the pEC50 (read-out: TNF-alpha EC50) was 6.66.

The substance “C*C*G*A*G*C*C*G*C*A*U*A*C*C*C*C (CCGAGCCGCAUACCCC; listed as RNA, chemistry not fully specified) [SEQ ID NO: 45]” displayed an IFN-alpha max activity of 98.44 pg/mL and a TNF-alpha max activity of 10491 pg/mL. Further, the pEC50 (read-out: IFN-alpha EC50) is 5.77. The pEC50 (read-out: TNF-alpha EC50) is 6.12.

Regarding “C*C*G*A*G*C*C*G*A*A*G*A*U*A*C*C (CCGAGCCGAAGAUACC; listed as RNA, chemistry not fully specified) [SEQ ID NO: 85]”, the IFN-alpha max activity is 193.7 pg/mL and the TNF-alpha max activity is 17146 pg/mL. Further, under “read-out: IFN-alpha EC50”, the pEC50 is below 5.70. Besides, under “read-out: TNF-alpha EC50”, the pEC50 is 6.67.

“C*C*G*A*G*C*C*G*A*U*A*U*U*A*C*C (CCGAGCCGAUAUUACC; listed as RNA, chemistry not fully specified) [SEQ ID NO: 65]” gave an IFN-alpha max activity of 335.2 pg/mL and a TNF-alpha max activity of 39377 pg/mL. For the same substance, under “read-out: IFN-alpha EC50”, the pEC50 is 5.95. Also, the pEC50 (read-out: TNF-alpha EC50) was 7.11.

As usually defined, the pEC50 is the EC50 on a negative log10 scale, so that one unit is a factor of ten.
